For eight molecules, GI50 and TGI results are on record in PubChem BioAssay (NCI).

Where “and” joins values, the source holds several entries; their conditions need not be identical. Equal values may be shown once.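 Briefly, cells in 96-well plates were exposed to five compound concentrations for 48 h, and endpoints were estimated by linear interpolation. At the GI50, growth is halved. The concentration for full growth arrest is given as TGI.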

Holding throughout (assay): NCI-60 cell line screen, 48 h
Experiment [1] deals with UACC-257 melanoma.
The test system of experiment [2] is SF-539 CNS.
In experiment [3] the test system is SN12C renal.
Experiment [4] concerns TK-10 renal.
The test system of experiment [5] is LOX IMVI melanoma.
The test system of experiment [6] is IGROV1 ovarian.
Experiment [7] concerns ACHN renal.
For experiment [8], the system named is NCI-H522 lung.
Experiment [9] deals with U251 CNS.
Experiment [10] has as its system HT29 colon.

Consider `CCN1C(=O)N(CC)C2C1NN=c1s/c(=C\c3cccc([N+](=O)[O-])c3)c(=O)n12` (centres undefined), for which the GI50 in experiment [1] is over 100 µM; in experiment [2] it was 0.0397 µM; in experiment [3], 0.149 µM; in [4], over 100 µM; in experiment [5], 0.0568 µM; in experiment [6] it was 0.162 µM. Besides, the GI50 in [7] was 0.0662 µM; in [8], 0.0427 µM; in experiment [9], 0.0542 µM; in experiment [10], 0.0387 µM. In addition, the TGI in experiment [1] is over 100 µM; in experiment [2], 0.396 µM; in experiment [3] it was over 100 µM; in [4] it was over 100 µM; in experiment [5] it was over 100 µM; in experiment [6], over 100 µM. Besides, the TGI in experiment [7] was over 100 µM; in experiment [8], 3.4 µM; in experiment [9] it was over 100 µM; in experiment [10], over 100 µM.
On to `C[C@@](O)(/C=C/[C@H]1CC=CC(=O)O1)[C@@H](C[C@@H](O)\C=C/C=C\C=C\CO)OP(=O)(O)O`, for which the GI50 is 7.2 µM in [1], 5.28 µM in experiment [2], 4.32 µM in [5] and 13.3 µM in experiment [9]. The TGI in [1] was 17.6 µM and 14.6 µM; in experiment [2] it was 11.5 µM and 23 µM; in experiment [3], 80.5 µM; in [4] it was 46.6 µM; in [5], 10.1 µM and 6.8 µM; in [6], 15.4 µM. Also, the TGI in experiment [7] was 20.4 µM; in experiment [8], 66.1 µM and 60.1 µM; in experiment [9], 49 µM and 55.6 µM; in experiment [10], 6.33 µM.
`CC(OC(=O)N(N(CCCl)S(C)(=O)=O)S(C)(=O)=O)c1ccc([N+](=O)[O-])cc1` (centres undefined): the GI50 in experiment [1] is 76.1 µM; in experiment [2], 3.42 µM; in experiment [3], 34.9 µM; in experiment [4], over 66.2 µM; in [5], 51.2 µM; in [6], over 96.6 µM. The GI50 in experiment [7] is over 100 µM; in [8] it was 51.4 µM; in experiment [9] it was 42.5 µM; in [10], 65 µM. In addition, the TGI is over 100 µM in [1]; over 47.5 µM in experiment [2]; over 100 µM in experiment [3]; over 100 µM in [4]; over 100 µM in experiment [5]; over 100 µM in [6]. In addition, the TGI in experiment [7], in experiment [8], in experiment [9] and in experiment [10] was over 100 µM each time.
`CCN(CC)c1ccc(/C=C/C=C(/C#N)C(N)=S)cc1`: the GI50 in [1] was 5.05 µM; in [2] it was 12.3 µM; in experiment [3], 7.56 µM; in experiment [4] it was 28.7 µM; in [5], 4.71 µM; in [6] it was 17.9 µM. In addition, the GI50 is 24 µM in experiment [7], 8.54 µM in [8], 7.36 µM in experiment [9] and 2.84 µM in [10]. In addition, the TGI in experiment [1] is 34.4 µM; in experiment [2] it was 31.3 µM; in [3], 75.2 µM; in experiment [4] it was over 100 µM; in [5] it was 28.3 µM; in experiment [6] it was over 100 µM. Moreover, the TGI in [7] is over 100 µM; in experiment [8], 47.8 µM; in [9], over 100 µM; in experiment [10] it was 23.9 µM.
With `Oc1c2c(c(O)c3ccccc13)C1(N=N2)c2ccccc2Oc2ccccc21`, the TGI in experiment [1] was determined as 19.1 µM; in experiment [2], 20.2 µM; in [3] it was 27 µM; in experiment [4], 23 µM; in [5], 7.31 µM; in experiment [6], 10.2 µM. Besides, the TGI in [7] was 16 µM; in experiment [8], 5.13 µM; in experiment [9], 16.4 µM; in experiment [10], 30.2 µM.
As to `FC(F)(F)c1[nH]ncc1-c1nc2ccc3[nH]ncc3c2c2c1CCCC2`, the GI50 in experiment [1] was 2.67 µM; in [2], 1.2 µM; in [3] it was 1.53 µM; in experiment [4], 1.24 µM; in [5], 1.09 µM; in experiment [6] it was 0.942 µM. Besides, the GI50 was 1.39 µM in experiment [7], 1.24 µM in experiment [8], 2.56 µM in experiment [9] and 2.11 µM in [10]. For the same molecule, the TGI was 8.69 µM in experiment [1]; 2.83 µM in experiment [2]; 5.6 µM in experiment [3]; 8.27 µM in experiment [4]; 2.6 µM in experiment [5]; 5 µM in experiment [6]. Also, the TGI in [7] was determined as 9.62 µM; in experiment [8], 4.77 µM; in experiment [9], 7.5 µM; in experiment [10] it was 6.76 µM.
As for `CNCCCn1c2c(c3ccc(F)cc3c1=O)C(=O)c1cc(OC)cnc1-2`, the GI50 was 0.485 µM in [1]; 0.368 µM in experiment [2]; 0.211 µM in experiment [3]; 0.332 µM in [4]; 0.142 µM in [5]; 0.32 µM in [6]. Besides, the GI50 in [7] is 0.117 µM; in experiment [8], 0.0569 µM; in experiment [9], 0.11 µM; in experiment [10] it was 0.145 µM. In addition, the TGI is 1.9 µM in [1]; 1.36 µM in experiment [2]; 1.34 µM in experiment [3]; 1.79 µM in experiment [4]; 0.375 µM in experiment [5]; 4.11 µM in experiment [6]. In addition, the TGI in experiment [7] stood at 0.362 µM; in [8] it was 1.08 µM; in experiment [9] it was 0.46 µM; in [10], 0.624 µM.
For the molecule `CCCCCSC1C2C(=O)C(Br)=CC13CCNc1c(O)c4c5c(c13)=[N+]2CCC=5C=N4` (centres undefined), the GI50 in [1] was 0.385 µM; in [2], 2.78 µM; in [3], 0.414 µM; in experiment [4] it was 2.98 µM; in [5], 0.842 µM; in experiment [6], 0.913 µM. Besides, the GI50 in [7] is 1.75 µM; in experiment [8], 0.452 µM; in experiment [9] it was 2.56 µM; in experiment [10], 0.49 µM. Moreover, the TGI in experiment [1] is 1.2 µM; in [2], 5.08 µM; in experiment [3], 1.12 µM; in [4], 5.34 µM; in experiment [5] it was 3.35 µM; in [6] it was 3.61 µM. For the same molecule, the TGI in [7] amounted to 3.97 µM; in [8], 1.26 µM; in experiment [9], 5.67 µM; in experiment [10], 1.54 µM.
